Measured values reported in patent US9452225B2, “GLP-1 prodrugs” (Novo Nordisk A/S, priority 2012, dated 2016).
Like-named read-outs stand apart in the source and are kept apart here. Numbered stars: 1 amine (or outer) side, 2 acyl side, 3 side chain; on linkers, the order of the positions; unused ones are H or OH. Square brackets hold non-standard residues; d marks the D form. Side chains are listed from the residue outwards. Peptide text beside a SMILES is read from it. * marks the point of attachment. Decanoyl(10-(4-HOOC-PhO)) = O=C(O)c1ccc(OCCCCCCCCCC(=O)*)cc1; Lac(3-(imidazol-4-yl)) = O=C(O)[C@@H](O)Cc1c[nH]cn1; C18 diacid = O=C(O)CCCCCCCCCCCCCCCCC(=O)*; γGlu = O=C(O)[C@H](CCC(=O)[*:2])N[*:1]; NMeI = CC[C@H](C)[C@H](NC)C(=O)O; NMeV = CN[C@H](C(=O)O)C(C)C; AEEA = NCCOCCOCC(=O)O; Aib = CC(C)(N)C(=O)O; Glycolyl = O=C(CO)*

Legend:
[1] = Prodrug half-life in vitro, buffer method; format: physicochemical
Procedure: (§1) The purpose of this example is to test the in vitro half-lives (T½) of the GLP-1 prodrugs of the invention, in comparison to conceptually different prodrugs. In what follows two in vitro methods are described, viz. a method conducted in buffer, and a method conducted in plasma.
Buffer: 25 mM Phosphate (Ionic strength: 154 mM, pH 7.4 at 37° C.)
NaH2PO4.2H2O (1.95 g, 12.5 mmol) and NaCl (2.61 g, 44.7 mmol) were dissolved in millipore water (approximately 450 mL) and adjusted to pH=7.44 at approximately 20° C. with concentrated NaOH and 1 M NaOH. Water was added to 500.00 mL.
The compound to be tested was dissolved in buffer to a concentration of 1.0 mg/mL and incubated at 37° C. Samples were taken at adequate intervals and the % parent drug compared to prodrug formed as function of time was evaluated by the UPLC method as referred to in Table 1 by comparing the areas under the curves for the two corresponding peaks. These UPLC methods are described in the general experimental section above (UPLC_A, and UPLC_B).
(§2) The half life of the prodrug (T½) was calculated from the slope of a linear fit to the curve of ln(% prodrug (Y)) as a function of time (t), as follows: Y=÷αt+k Math. 1 T½=ln(2)/α Math. 2 Plasma Method Buffer: 200 mM Phosphate, pH 7.4 at 37° C.
The resulting half-lives are set out in Table 1 below. For comparison, the T½ in buffer of native GLP-1(7-37) (His7 variant of SEQ ID NO: 1) was 13 minutes (0.2 hours).

[2] = Prodrug half-life in vitro, plasma method (minipig heparin plasma); format: in vitro ADME; conditions: minipig heparin plasma 800 μL + 200 μL 200 mM phosphate pH 7.4, 37° C.; UPLC_A, or UPLC_B for compounds marked *; read-out: T½ in plasma (converted)
Procedure: as §1, §2
NaH2PO4.2H2O (15.61 g, 100 mmol) was dissolved in milliQ water (approximately 450 mL) and adjusted to pH=7.44 at approximately 20° C. with concentrated NaOH (aq) and 1 M NaOH (aq). Water was added to 500.00 mL.
Serum: Minipig Serum, Heparin-Plasma
Fresh blood was tapped from minipig into 9 mL LH lithium heparin Vacuette tubes from Greiner bio-one (catalogue number 455084). After cooling on ice it was centrifuged (10 min, 4° C., 3000 rpm/1942G) and the supernatant isolated and kept at −18° C. before use.
100 nmol of the compound to be tested was dissolved in 200 μL buffer, added to 800 μL plasma (centrifuged), and incubated at 37° C. Samples (50 μL) were drawn at appropriate intervals into 150 μL absolute EtOH. After a short stirring the sample was centrifuged and the supernatant transferred to the UPLC vial (10 μL injection).
The % parent drug compared to prodrug formed as a function of time was evaluated by UPLC, and the half-life calculated, both in the same way as described above under the Buffer method.

[3] = 25 mM phosphate buffer pH 7.4, 37° C., 1.0 mg/mL, UPLC_A, or UPLC_B for compounds marked *, read-out: T½ in buffer (converted)

Row | Compound | half-life at 1 mg/mL [1, 3] [h] | half-life [2] [h] | half-life at 1 mg/mL ([1]; buffer, pH 7.4) [h]
1 | CC[C@H](C)[C@H](NC(=O)[C@H](Cc1ccccc1)NC(=O)[C@H](CCC(=O)O)NC(=O)[C@H](CCCNC(=N)N)NC(=O)[C@@H](NC(=O)[C@H](C)NC(=O)[C@H](CCC(N)=O)NC(=O)[C@H](CCC(=O)O)NC(=O)[C@H](CCC(=O)O)NC(=O)[C@H](CC(C)C)NC(=O)[C@H](Cc1ccc(O)cc1)NC(=O)[C@H](CCCCNC(=O)COCCOCCNC(=O)COCCOCCNC(=O)CC[C@H](NC(=O)CCCCCCCCCOc1ccc(C(=O)O)cc1)C(=O)O)NC(=O)[C@H](CO)NC(=O)[C@@H](NC(=O)[C@H](CC(=O)O)NC(=O)[C@H](CO)NC(=O)[C@@H](NC(=O)[C@H](Cc1ccccc1)NC(=O)[C@@H](NC(=O)CNC(=O)[C@H](CCC(=O)O)NC(=O)[C@H](C)NC(=O)[C@H](Cc1c[nH]cn1)OC(=O)[C@@H](NC(=O)[C@@H](NC)C(C)C)C(C)C)[C@@H](C)O)[C@@H](C)O)C(C)C)C(C)C)C(=O)N[C@@H](C)C(=O)N[C@@H](CCCCNC(=O)COCCOCCNC(=O)COCCOCCNC(=O)CC[C@H](NC(=O)CCCCCCCCCOc1ccc(C(=O)O)cc1)C(=O)O)C(=O)N[C@@H](CC(C)C)C(=O)N[C@H](C(=O)N[C@@H](CCCNC(=N)N)C(=O)NCC(=O)N[C@@H](CCCNC(=N)N)C(=O)NCC(=O)O)C(C)C [Example 2] (H-[NMeV]V[Lac(3-(imidazol-4-yl))]AEGTFTSDVSK([AEEA-AEEA-γGlu-Decanoyl(10-(4-HOOC-PhO))])YLEEQAVREFIAK([AEEA-AEEA-γGlu-Decanoyl(10-(4-HOOC-PhO))])LVRGRG-OH) | 42.5 | 27.5 | –
2 | CC[C@H](C)[C@H](NC(=O)[C@H](Cc1ccccc1)NC(=O)[C@H](CCC(=O)O)NC(=O)[C@H](CCCNC(=N)N)NC(=O)[C@@H](NC(=O)[C@H](C)NC(=O)[C@H](CCC(N)=O)NC(=O)[C@H](CCC(=O)O)NC(=O)[C@H](CCC(=O)O)NC(=O)[C@H](CC(C)C)NC(=O)[C@H](Cc1ccc(O)cc1)NC(=O)[C@H](CCCCNC(=O)COCCOCCNC(=O)COCCOCCNC(=O)CC[C@H](NC(=O)CCCCCCCCCOc1ccc(C(=O)O)cc1)C(=O)O)NC(=O)[C@H](CO)NC(=O)[C@@H](NC(=O)[C@H](CC(=O)O)NC(=O)[C@H](CO)NC(=O)[C@@H](NC(=O)[C@H](Cc1ccccc1)NC(=O)[C@@H](NC(=O)CNC(=O)[C@H](CCC(=O)O)NC(=O)[C@H](C)NC(=O)[C@H](Cc1c[nH]cn1)OC(=O)[C@@H](NC(=O)CO)C(C)C)[C@@H](C)O)[C@@H](C)O)C(C)C)C(C)C)C(=O)N[C@@H](C)C(=O)N[C@@H](CCCCNC(=O)COCCOCCNC(=O)COCCOCCNC(=O)CC[C@H](NC(=O)CCCCCCCCCOc1ccc(C(=O)O)cc1)C(=O)O)C(=O)N[C@@H](CC(C)C)C(=O)N[C@H](C(=O)N[C@@H](CCCNC(=N)N)C(=O)NCC(=O)N[C@@H](CCCNC(=N)N)C(=O)NCC(=O)O)C(C)C [Example 1b] (Glycolyl-V[Lac(3-(imidazol-4-yl))]AEGTFTSDVSK([AEEA-AEEA-γGlu-Decanoyl(10-(4-HOOC-PhO))])YLEEQAVREFIAK([AEEA-AEEA-γGlu-Decanoyl(10-(4-HOOC-PhO))])LVRGRG-OH) | 0.65 | – | –
3 | CC[C@H](C)[C@H](NC)C(=O)N[C@H](C(=O)O[C@@H](Cc1c[nH]cn1)C(=O)NC(C)(C)C(=O)N[C@@H](CCC(=O)O)C(=O)NCC(=O)N[C@H](C(=O)N[C@@H](Cc1ccccc1)C(=O)N[C@H](C(=O)N[C@@H](CO)C(=O)N[C@@H](CC(=O)O)C(=O)N[C@H](C(=O)N[C@@H](CO)C(=O)N[C@@H](CO)C(=O)N[C@@H](Cc1ccc(O)cc1)C(=O)N[C@@H](CC(C)C)C(=O)N[C@@H](CCC(=O)O)C(=O)N[C@@H](CCC(=O)O)C(=O)N[C@@H](CCC(N)=O)C(=O)N[C@@H](C)C(=O)N[C@@H](C)C(=O)N[C@@H](CCCNC(=N)N)C(=O)N[C@@H](CCCCNC(=O)COCCOCCNC(=O)COCCOCCNC(=O)CC[C@H](NC(=O)CCCCCCCCCCCCCCCCC(=O)O)C(=O)O)C(=O)N[C@@H](Cc1ccccc1)C(=O)N[C@H](C(=O)N[C@@H](C)C(=O)N[C@@H](Cc1c[nH]c2ccccc12)C(=O)N[C@@H](CC(C)C)C(=O)N[C@H](C(=O)N[C@@H](CCCNC(=N)N)C(=O)NCC(=O)N[C@@H](CCCNC(=N)N)C(=O)NCC(=O)O)C(C)C)[C@@H](C)CC)C(C)C)[C@@H](C)O)[C@@H](C)O)C(C)C [Example 6] (H-[NMeI]V[Lac(3-(imidazol-4-yl))][Aib]EGTFTSDVSSYLEEQAARK([AEEA-AEEA-γGlu-C18 diacid])FIAWLVRGRG-OH) | – | – | 45.6
4 | CC[C@H](C)[C@H](NC(=O)[C@H](Cc1ccccc1)NC(=O)[C@H](CCC(=O)O)NC(=O)[C@H](CCCNC(=N)N)NC(=O)[C@@H](NC(=O)[C@H](C)NC(=O)[C@H](CCC(N)=O)NC(=O)[C@H](CCC(=O)O)NC(=O)[C@H](CCC(=O)O)NC(=O)[C@H](CC(C)C)NC(=O)[C@H](Cc1ccc(O)cc1)NC(=O)[C@H](CCCCNC(=O)COCCOCCNC(=O)COCCOCCNC(=O)CC[C@H](NC(=O)CCCCCCCCCOc1ccc(C(=O)O)cc1)C(=O)O)NC(=O)[C@H](CO)NC(=O)[C@@H](NC(=O)[C@H](CC(=O)O)NC(=O)[C@H](CO)NC(=O)[C@@H](NC(=O)[C@H](Cc1ccccc1)NC(=O)[C@@H](NC(=O)CNC(=O)[C@H](CCC(=O)O)NC(=O)[C@H](C)NC(=O)[C@H](Cc1c[nH]cn1)OC(=O)[C@@H](NC(=O)CN)C(C)C)[C@@H](C)O)[C@@H](C)O)C(C)C)C(C)C)C(=O)N[C@@H](C)C(=O)N[C@@H](CCCCNC(=O)COCCOCCNC(=O)COCCOCCNC(=O)CC[C@H](NC(=O)CCCCCCCCCOc1ccc(C(=O)O)cc1)C(=O)O)C(=O)N[C@@H](CC(C)C)C(=O)N[C@H](C(=O)N[C@@H](CCCNC(=N)N)C(=O)NCC(=O)N[C@@H](CCCNC(=N)N)C(=O)NCC(=O)O)C(C)C [Example 1a] (H-GV[Lac(3-(imidazol-4-yl))]AEGTFTSDVSK([AEEA-AEEA-γGlu-Decanoyl(10-(4-HOOC-PhO))])YLEEQAVREFIAK([AEEA-AEEA-γGlu-Decanoyl(10-(4-HOOC-PhO))])LVRGRG-OH) | 1.5 | – | –
5 | CC[C@H](C)[C@H](N)C(=O)N[C@H](C(=O)O[C@@H](Cc1c[nH]cn1)C(=O)NC(C)(C)C(=O)N[C@@H](CCC(=O)O)C(=O)NCC(=O)N[C@H](C(=O)N[C@@H](Cc1ccccc1)C(=O)N[C@H](C(=O)N[C@@H](CO)C(=O)N[C@@H](CC(=O)O)C(=O)N[C@H](C(=O)N[C@@H](CO)C(=O)N[C@@H](CO)C(=O)N[C@@H](Cc1ccc(O)cc1)C(=O)N[C@@H](CC(C)C)C(=O)N[C@@H](CCC(=O)O)C(=O)N[C@@H](CCC(=O)O)C(=O)N[C@@H](CCC(N)=O)C(=O)N[C@@H](C)C(=O)N[C@@H](C)C(=O)N[C@@H](CCCNC(=N)N)C(=O)N[C@@H](CCCCNC(=O)COCCOCCNC(=O)COCCOCCNC(=O)CC[C@H](NC(=O)CCCCCCCCCCCCCCCCC(=O)O)C(=O)O)C(=O)N[C@@H](Cc1ccccc1)C(=O)N[C@H](C(=O)N[C@@H](C)C(=O)N[C@@H](Cc1c[nH]c2ccccc12)C(=O)N[C@@H](CC(C)C)C(=O)N[C@H](C(=O)N[C@@H](CCCNC(=N)N)C(=O)NCC(=O)N[C@@H](CCCNC(=N)N)C(=O)NCC(=O)O)C(C)C)[C@@H](C)CC)C(C)C)[C@@H](C)O)[C@@H](C)O)C(C)C [Example 6a] (H-IV[Lac(3-(imidazol-4-yl))][Aib]EGTFTSDVSSYLEEQAARK([AEEA-AEEA-γGlu-C18 diacid])FIAWLVRGRG-OH) | – | – | 11
